In PubChem BioAssay AID2060336 (Molecular Pharmacology Branch, DTP, NCI, 2025):

Tested on: 958767-090-R-J1-PDC spheroid growth
Assay: Anticancer human tumor 958767-090-R-J1-PDC patient-derived head and neck squamous carcinoma cell line growth inhibition [IpAb]
Details: spheroids with HUVEC and MSC; for IC50: curve of first compound; for viability, T/C: stronger effect = lower value
How it was run: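 Combinations with ipatasertib or abemaciclib were tested on tumour spheroids holding HUVEC (25%) and MSC (15%) alongside 60% malignant cells. Top concentration was at or near clinical Cmax (10 microM if undefined), descending in half-log steps.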

[1] = second compound 0.01 µM, first compound 0.0316 µM
[2] = second compound 0.01 µM, first compound 0.1 µM
[3] = second compound 0.01 µM, first compound 0.316 µM
[4] = second compound 0.01 µM, first compound 1 µM
[5] = second compound 0.01 µM, first compound 3.16 µM
[6] = second compound 0.01 µM, first compound 10 µM
[7] = second compound 0.0316 µM, first compound 0.0316 µM
[8] = second compound 0.0316 µM, first compound 0.1 µM
[9] = second compound 0.0316 µM, first compound 0.316 µM
[10] = second compound 0.0316 µM, first compound 1 µM
[11] = second compound 0.0316 µM, first compound 3.16 µM
[12] = second compound 0.0316 µM, first compound 10 µM
[13] = second compound 0.1 µM, first compound 0.0316 µM
[14] = second compound 0.1 µM, first compound 0.1 µM
[15] = second compound 0.1 µM, first compound 0.316 µM
[16] = second compound 0.1 µM, first compound 1 µM
[17] = second compound 0.1 µM, first compound 3.16 µM
[18] = second compound 0.1 µM, first compound 10 µM
[19] = second compound 0.316 µM, first compound 0.0316 µM
[20] = second compound 0.316 µM, first compound 0.1 µM
[21] = second compound 0.316 µM, first compound 0.316 µM
[22] = second compound 0.316 µM, first compound 1 µM
[23] = second compound 0.316 µM, first compound 3.16 µM
[24] = second compound 0.316 µM, first compound 10 µM
[25] = second compound 1 µM, first compound 0.0316 µM
[26] = second compound 1 µM, first compound 0.1 µM
[27] = second compound 1 µM, first compound 0.316 µM
[28] = second compound 1 µM, first compound 1 µM
[29] = second compound 1 µM, first compound 3.16 µM
[30] = second compound 1 µM, first compound 10 µM
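Further: spheroids exposed to agents for 7 days.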
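Wherever viability, T/C is given: 100% = DMSO vehicle control wells.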

SMILES	IC50 (second compound 0.01 µM) [nM]	IC50 (second compound 0.0316 µM) [nM]	IC50 (second compound 0.1 µM) [nM]	IC50 (second compound 0.316 µM) [nM]	IC50 (second compound 1 µM) [nM]	viability, T/C [1] [%]	viability, T/C [2] [%]	viability, T/C [3] [%]	viability, T/C [4] [%]	viability, T/C [5] [%]	viability, T/C [6] [%]	viability, T/C [7] [%]	viability, T/C [8] [%]	viability, T/C [9] [%]	viability, T/C [13] [%]	viability, T/C [14] [%]	viability, T/C [19] [%]	viability, T/C [20] [%]	viability, T/C [25] [%]	viability, T/C [26] [%]	also measured
C=CC(=O)N1CCN(c2nc(=O)n(-c3c(C)ccnc3C(C)C)c3nc(-c4c(O)cccc4F)c(F)cc23)C(C)C1 (stereo not given) + CCN1CCN(Cc2ccc(Nc3ncc(F)c(-c4cc(F)c5nc(C)n(C(C)C)c5c4)n3)nc2)CC1	8410	7730	8020	8180	9880	96.3	84.9	94.4	94.8	81.9	44.3	82.4	84.8	90.7	72.2	70.2	77	55.1	89.7	82.4	viability, T/C [10]: 92.3%; viability, T/C [11]: 83.5%; viability, T/C [12]: 40%; viability, T/C [15]: 75.1%; viability, T/C [16]: 94.2%; viability, T/C [17]: 81.4%; viability, T/C [18]: 43.3%; viability, T/C [21]: 72.5%; viability, T/C [22]: 94.1%; viability, T/C [23]: 75.9%; viability, T/C [24]: 44.9%; viability, T/C [27]: 94.6%; viability, T/C [28]: 96.1%; viability, T/C [29]: 87.7%; viability, T/C [30]: 49.5%
Cn1ncc(Cl)c1-c1cc(C(=O)NC(CN)Cc2cccc(F)c2)sc1Cl (stereo not given) + CCN1CCN(Cc2ccc(Nc3ncc(F)c(-c4cc(F)c5nc(C)n(C(C)C)c5c4)n3)nc2)CC1	786	647	614	1080	818	89.7	76.1	58.8	45.4	33.5	0.14	75.1	74.5	62.6	73.2	65.9	62.7	46.6	83.7	63.3	viability, T/C [10]: 38.3%; viability, T/C [11]: 25.5%; viability, T/C [12]: 0.15%; viability, T/C [15]: 51.5%; viability, T/C [16]: 46.1%; viability, T/C [17]: 30.3%; viability, T/C [18]: 0.18%; viability, T/C [21]: 47.1%; viability, T/C [22]: 52.5%; viability, T/C [23]: 19.7%; viability, T/C [24]: 0.17%; viability, T/C [27]: 62.3%; viability, T/C [28]: 50.9%; viability, T/C [29]: 27.9%; viability, T/C [30]: 1.92%
Cn1ncnc1[C@H]1c2n[nH]c(=O)c3cc(F)cc(c23)N[C@@H]1c1ccc(F)cc1 + CCN1CCN(Cc2ccc(Nc3ncc(F)c(-c4cc(F)c5nc(C)n(C(C)C)c5c4)n3)nc2)CC1	> 100	> 100	> 100	32.2	> 100	75	66	–	–	–	–	52.8	67.4	–	50.2	59.4	56.8	43.4	56.6	58.2	viability, T/C (second compound 0.01 µM, first compound 0.000316 µM): 90.1%; viability, T/C (second compound 0.01 µM, first compound 0.001 µM): 93.3%; viability, T/C (second compound 0.01 µM, first compound 0.00316 µM): 66.3%; viability, T/C (second compound 0.01 µM, first compound 0.01 µM): 84%; viability, T/C (second compound 0.0316 µM, first compound 0.000316 µM): 83.6%; viability, T/C (second compound 0.0316 µM, first compound 0.001 µM): 75.1%; viability, T/C (second compound 0.0316 µM, first compound 0.00316 µM): 67.8%; viability, T/C (second compound 0.0316 µM, first compound 0.01 µM): 46.2%; viability, T/C (second compound 0.1 µM, first compound 0.000316 µM): 68.8%; viability, T/C (second compound 0.1 µM, first compound 0.001 µM): 64.6%; viability, T/C (second compound 0.1 µM, first compound 0.00316 µM): 60.8%; viability, T/C (second compound 0.1 µM, first compound 0.01 µM): 56.6%; viability, T/C (second compound 0.316 µM, first compound 0.000316 µM): 59.2%; viability, T/C (second compound 0.316 µM, first compound 0.001 µM): 53.8%; viability, T/C (second compound 0.316 µM, first compound 0.00316 µM): 49.3%; viability, T/C (second compound 0.316 µM, first compound 0.01 µM): 54%; viability, T/C (second compound 1 µM, first compound 0.000316 µM): 70.8%; viability, T/C (second compound 1 µM, first compound 0.001 µM): 73.7%; viability, T/C (second compound 1 µM, first compound 0.00316 µM): 70.5%; viability, T/C (second compound 1 µM, first compound 0.01 µM): 60.2%
